Assay results reported in PubChem BioAssay (NCI).
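All cell lines were grown in 96-well plates and treated with compound for 48 hours. The concentration for full growth arrest is given as TGI.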

What was measured:
Test in all cases: inhibition of tumour cell growth, NCI panel, 48 h
[1] = tested on: SF-295 CNS
[2] = tested on: KM12 colon
[3] = tested on: RXF 393 renal
[4] = tested on: UACC-257 melanoma
[5] = tested on: NCI-H226 lung
[6] = tested on: CCRF-CEM leukemia
[7] = tested on: SK-MEL-5 melanoma
[8] = tested on: SNB-78 CNS
[9] = tested on: A549 NSCLC
[10] = tested on: UACC-62 melanoma
[11] = tested on: SK-OV-3 ovarian
[12] = tested on: HL-60(TB) leukemia
[13] = tested on: HOP-18 NSCLC
[14] = tested on: UO-31 renal
[15] = tested on: SW-620 colon
[16] = tested on: DMS 114 small cell lung
[17] = tested on: SR leukemia
[18] = tested on: M14 melanoma
[19] = tested on: K-562 leukemia
[20] = tested on: OVCAR-4 ovarian
[21] = tested on: EKVX NSCLC
[22] = tested on: NCI-H522 lung
[23] = tested on: LOX IMVI melanoma
[24] = tested on: DMS 273 small cell lung
[25] = tested on: KM20L2 colon
[26] = tested on: SK-MEL-2 melanoma
[27] = tested on: HOP-62 NSCLC
[28] = tested on: SN12C renal
[29] = tested on: LXFL 529 NSCLC
[30] = tested on: ACHN renal
[31] = tested on: OVCAR-8 ovarian
[32] = tested on: MALME-3M melanoma
[33] = tested on: MOLT-4 leukemia
[34] = tested on: RPMI-8226 leukemia
[35] = tested on: HCT-15 colon
[36] = tested on: SK-MEL-28 melanoma
[37] = tested on: NCI-H23 lung
[38] = tested on: SF-268 CNS
[39] = tested on: TK-10 renal
[40] = tested on: 786-0 renal
[41] = tested on: SNB-75 CNS
[42] = tested on: HT29 colon
[43] = tested on: M19-MEL melanoma
[44] = tested on: SNB-19 CNS
[45] = tested on: XF 498 CNS
[46] = tested on: U251 CNS
[47] = tested on: NCI-H460 lung
[48] = tested on: COLO 205 colon
[49] = tested on: HCT-116 colon
[50] = tested on: HCC-2998 colon
[51] = tested on: A498 renal
[52] = tested on: CAKI-1 renal
[53] = tested on: IGROV1 ovarian
[54] = tested on: OVCAR-5 ovarian
[55] = tested on: DLD-1 colon
[56] = tested on: SF-539 CNS
[57] = tested on: HOP-92 NSCLC
[58] = tested on: OVCAR-3 ovarian

SMILES: O=C(O)OC12CCCCCC1C(=O)C1CCCCC12 (centres undefined)
- TGI [1]: > 100 µM
- TGI [2]: > 100 µM
- TGI [3]: > 100 µM
- TGI [4]: > 100 µM
- TGI [5]: > 100 µM
- TGI [6]: > 100 µM
- TGI [7]: > 100 µM
- TGI [8]: > 100 µM
- TGI [9]: > 100 µM
- TGI [10]: > 100 µM
- TGI [11]: > 100 µM
- TGI [12]: > 100 µM
- TGI [13]: > 100 µM
- TGI [14]: > 100 µM
- TGI [15]: > 100 µM
- TGI [16]: > 100 µM
- TGI [17]: > 100 µM
- TGI [18]: > 100 µM
- TGI [19]: > 100 µM
- TGI [20]: > 100 µM
- TGI [21]: > 100 µM
- TGI [22]: > 100 µM
- TGI [23]: > 100 µM
- TGI [24]: > 100 µM
- TGI [25]: > 100 µM
- TGI [26]: > 100 µM
- TGI [27]: > 100 µM
- TGI [28]: > 100 µM
- TGI [29]: > 100 µM
- TGI [30]: > 100 µM
- TGI [31]: > 100 µM
- TGI [32]: > 100 µM
- TGI [33]: > 100 µM
- TGI [34]: > 100 µM
- TGI [35]: > 100 µM
- TGI [36]: > 100 µM
- TGI [37]: > 100 µM
- TGI [38]: > 100 µM
- TGI [39]: > 100 µM
- TGI [40]: > 100 µM
- TGI [41]: > 100 µM
- TGI [42]: > 100 µM
- TGI [43]: > 100 µM
- TGI [44]: > 100 µM
- TGI [45]: > 100 µM
- TGI [46]: > 100 µM
- TGI [47]: > 100 µM
- TGI [48]: > 100 µM
- TGI [49]: > 100 µM

SMILES: CSC(SC)=C1Sc2cccc(Cl)c2S1
- TGI [1]: > 100 µM
- TGI [2]: > 100 µM
- TGI [3]: 88.1 µM
- TGI [4]: > 100 µM
- TGI [5]: > 100 µM
- TGI [6]: > 100 µM
- TGI [7]: > 100 µM
- TGI [8]: > 100 µM
- TGI [9]: > 100 µM
- TGI [50]: 44.9 µM
- TGI [10]: > 100 µM
- TGI [51]: > 100 µM
- TGI [52]: > 100 µM
- TGI [11]: > 100 µM
- TGI [53]: > 100 µM
- TGI [12]: 45.9 µM
- TGI [13]: > 100 µM
- TGI [54]: > 100 µM
- TGI [14]: > 100 µM
- TGI [15]: > 100 µM
- TGI [16]: 79.8 µM
- TGI [55]: > 100 µM
- TGI [18]: > 100 µM
- TGI [19]: > 100 µM
- TGI [20]: > 100 µM
- TGI [21]: > 100 µM
- TGI [22]: 63.8 µM
- TGI [23]: > 100 µM
- TGI [24]: > 100 µM
- TGI [25]: > 100 µM
- TGI [26]: 48.8 µM
- TGI [27]: > 100 µM
- TGI [28]: > 100 µM
- TGI [29]: > 100 µM
- TGI [30]: > 100 µM
- TGI [31]: > 100 µM
- TGI [32]: > 100 µM
- TGI [33]: > 100 µM
- TGI [34]: > 100 µM
- TGI [35]: > 100 µM
- TGI [56]: > 100 µM
- TGI [57]: 65.8 µM
- TGI [36]: > 100 µM
- TGI [37]: > 100 µM
- TGI [38]: > 100 µM
- TGI [39]: > 100 µM
- TGI [40]: > 100 µM
- TGI [41]: > 100 µM
- TGI [42]: > 100 µM
- TGI [43]: > 100 µM
- TGI [44]: > 100 µM
- TGI [45]: 76.9 µM
- TGI [46]: > 100 µM
- TGI [47]: > 100 µM
- TGI [48]: 41.3 µM
- TGI [49]: > 100 µM

SMILES: COc1cc2c(cc1O)CCN[C@@]21CS[C@H]2c3c(OC(C)=O)c(C)c4c(c3C(COC1=O)N1C2C2NC(Cc3cc(C)c(OC)c(O)c32)[C@@H]1C#N)OCO4 (some centres undefined)
- TGI [3]: < 0.01 µM
- TGI [5]: < 0.01 µM
- TGI [6]: 0.0525 µM
- TGI [7]: < 0.01 µM
- TGI [50]: < 0.01 µM
- TGI [10]: < 0.01 µM
- TGI [12]: 0.0209 µM
- TGI [15]: 1.06 µM
- TGI [16]: < 0.01 µM
- TGI [55]: 0.271 µM
- TGI [17]: > 100 µM
- TGI [18]: < 0.01 µM
- TGI [20]: < 0.01 µM
- TGI [21]: 0.125 µM
- TGI [25]: < 0.01 µM
- TGI [26]: < 0.01 µM
- TGI [27]: 0.0107 µM
- TGI [28]: 0.115 µM
- TGI [29]: 0.111 µM
- TGI [30]: 0.721 µM
- TGI [32]: < 0.01 µM
- TGI [33]: < 0.01 µM
- TGI [34]: 0.017 µM
- TGI [56]: < 0.01 µM
- TGI [36]: 0.0268 µM
- TGI [37]: < 0.01 µM
- TGI [38]: 0.104 µM
- TGI [39]: 61 µM
- TGI [40]: 0.162 µM
- TGI [41]: < 0.01 µM
- TGI [42]: 0.16 µM
- TGI [43]: < 0.01 µM
- TGI [44]: 1.87 µM
- TGI [45]: < 0.01 µM
- TGI [46]: 0.444 µM
- TGI [49]: 1.14 µM

SMILES: CC(C)OP(=O)(OC(C)C)C(=Nc1ccc(N=C(NNc2ccc([N+](=O)[O-])cc2)P(=O)(OC(C)C)OC(C)C)cc1)NNc1ccc([N+](=O)[O-])cc1
- TGI [2]: > 100 µM
- TGI [58]: > 100 µM
- TGI [4]: > 100 µM
- TGI [5]: > 100 µM
- TGI [6]: > 100 µM
- TGI [7]: > 100 µM
- TGI [9]: > 100 µM
- TGI [10]: 6.7 µM
- TGI [51]: > 100 µM
- TGI [52]: > 100 µM
- TGI [53]: > 100 µM
- TGI [12]: > 100 µM
- TGI [54]: > 100 µM
- TGI [14]: > 100 µM
- TGI [16]: > 100 µM
- TGI [55]: > 100 µM
- TGI [17]: > 100 µM
- TGI [18]: > 100 µM
- TGI [19]: > 100 µM
- TGI [20]: > 100 µM
- TGI [21]: > 100 µM
- TGI [22]: > 100 µM
- TGI [23]: > 100 µM
- TGI [24]: > 100 µM
- TGI [25]: > 100 µM
- TGI [26]: > 100 µM
- TGI [27]: > 100 µM
- TGI [28]: > 100 µM
- TGI [29]: > 100 µM
- TGI [30]: > 100 µM
- TGI [31]: > 100 µM
- TGI [32]: > 100 µM
- TGI [33]: > 100 µM
- TGI [34]: > 100 µM
- TGI [35]: > 100 µM
- TGI [56]: > 100 µM
- TGI [57]: > 100 µM
- TGI [36]: > 100 µM
- TGI [37]: > 100 µM
- TGI [38]: > 100 µM
- TGI [39]: > 100 µM
- TGI [41]: > 100 µM
- TGI [43]: > 100 µM
- TGI [44]: > 100 µM
- TGI [45]: > 100 µM
- TGI [46]: > 100 µM
- TGI [48]: > 100 µM
- TGI [49]: > 100 µM
